Assay [1] deals with His-CREBBP (1081-1197) bromodomain (Homo sapiens (Human), UniProt Q92793). The assay is described as follows: AlphaScreen in-vitro binding assay for CREBBP. To be noted: biochemical. The method in brief: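 Ni-chelate acceptor and streptavidin donor beads (45 µg/mL each, in 50 mM HEPES pH 7.5, 150 mM NaCl, 0.02% BSA) were then added for 60 min at room temperature. IC50 came from 8-point non-linear regression.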
For orientation: Alpha assays give light when donor and acceptor beads are brought close together.

Another assay relates to THP-1 cells. The assay is described as follows: Cell growth inhibition assay (CellTiter-Glo), THP-1. It is filed as cell-based. The settings on record: Homo sapiens, read-out: THP-1 TGI. An outline of the steps:
(§1)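 Compounds tested as 3-fold dilution series starting at 10 μM (DMSO 0.1% final); viability read by cellular ATP (CTG luminescence) at 37° C. Signal corrected for no-cell background and a day-0 plate, scaled −100% to 100%; four-parameter fitting gives IC50 and TGI.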

A further assay relates to MV-4-11 cells. The assay is described as follows: Cell growth inhibition assay (CellTiter-Glo), MV-4-11. Type of assay: cell-based. To be noted: Homo sapiens, MV4-11, read-out: MV-4-11 TGI. The method in brief: as §1
(Cellular ATP, detected with luciferase, serves as a proxy for viable cell number.)

The next assay deals with His-Brd4(44-477) (Homo sapiens (Human), UniProt O60885). Description: TR-FRET in-vitro binding assay for BRD4. The settings on record: biochemical. The method in brief: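 His-tagged BRD2(60-472), BRD3(20-477) or BRD4(44-477), 45 nM in dispensing solution, with 60 nM tetra-acetylated histone H4 peptide (AcK5/8/12/16) in dispensing solution; HEPES pH 7.5, 50 mM NaCl, 0.1% BSA, 30 °C, 35 min. Eu-anti-His6 antibody plus streptavidin-APC added for TR-FRET read-out; 8-point compound dilutions.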
For orientation: Time-resolved FRET reads energy transfer from a long-lived donor to a nearby acceptor.

For the next assay, the system named is K-562 cells. The assay is described as follows: Cell growth inhibition assay (CellTiter-Glo), K-562. Type of assay: cell-based, human. To be noted: Homo sapiens, K562, read-out: K-562 TGI. An outline of the steps: as §1

His-CREBBP (1081-1197) bromodomain, sequence (Q92793 1081-1197): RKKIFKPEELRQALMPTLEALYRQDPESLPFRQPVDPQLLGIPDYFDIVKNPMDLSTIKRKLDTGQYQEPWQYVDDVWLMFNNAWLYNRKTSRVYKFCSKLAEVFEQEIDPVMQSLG

Take `Cn1cc(N2C(=O)c3c(c(C(F)(F)F)nn3C3CC3)C2c2ccc(Cl)cc2)cc(Cl)c1=O` (centres unmarked) [Example 44, 5-(5-chloro-1-methyl-6-oxo-1,6-dihydropyridin-3-yl)-4-(4-chlorophenyl)-1-cyclopropyl-3-(trifluoromethyl)-4,5-dihydropyrrolo[3,4-c]pyrazol-6(1H)-one]: the IC50 in assay [1] is 3.9 µM; at His-Brd4(44-477), 0.21 µM. The IC (total growth inhibition) with THP-1 cells was 0.484 µM; in the assay with MV-4-11 cells it was 0.329 µM; with K-562 cells, over 10 µM.
On the same counts, the results for `Cc1nn(C2CC2)c2c1C(c1ccc(OC(F)(F)F)cc1)N(c1cc(C)c(=O)n(C)c1)C2=O` (centres unmarked) [Example 95, 1-cyclopropyl-5-(1,5-dimethyl-6-oxo-1,6-dihydropyridin-3-yl)-3-methyl-4-(4-(trifluoromethoxy)phenyl)-4,5-dihydropyrrolo[3,4-c]pyrazol-6(1H)-one] are 7.7 µM, 0.064 µM, 0.411 µM, 0.27 µM and over 10 µM.
On the same counts, the results for `CCOC(=O)N1CC(n2nc(C)c3c2C(=O)N(c2cc(C)c(=O)n(C)c2)C3c2ccc(Cl)cc2)C1` (centres unmarked) [Example 155, Ethyl 3-(4-(4-chlorophenyl)-5-(1,5-dimethyl-6-oxo-1,6-dihydropyridin-3-yl)-3-methyl-6-oxo-5,6-dihydropyrrolo[3,4-c]pyrazol-1(4H)-yl)azetidine-1-carboxylate] are 11 µM, 0.087 µM, 0.305 µM, 0.117 µM and over 10 µM.
On the same counts, the results for `COc1ncccc1-n1nc(C)c2c1C(=O)N(c1cc(Cl)c(=O)n(C)c1)C2c1ccc(Cl)cc1` (centres unmarked) [Example 72, 5-(5-chloro-1-methyl-6-oxo-1,6-dihydropyridin-3-yl)-4-(4-chlorophenyl)-1-(2-methoxypyridin-3-yl)-3-methyl-4,5-dihydropyrrolo[3,4-c]pyrazol-6(1H)-one] are 8.2 µM, 0.079 µM, 0.408 µM, 0.164 µM and over 10 µM.
Regarding `Cc1nn(C2CC2)c2c1[C@@H](c1ccc(Cl)cc1)N(c1cc(C)c(=O)n(C)c1)C2=O` [Example 49, (R)-4-(4-chlorophenyl)-1-cyclopropyl-5-(1,5-dimethyl-6-oxo-1,6-dihydropyridin-3-yl)-3-methyl-4,5-dihydropyrrolo[3,4-c]pyrazol-6(1H)-one], the figures for the IC50 (in assay [1]; on His-Brd4(44-477)) were 1.3 µM and 0.017 µM, respectively. Further, the IC (total growth inhibition) in the assay on THP-1 cells is 0.0603 µM; in the assay on MV-4-11 cells, 0.0394 µM; in the assay on K-562 cells, over 10 µM.
On the same counts, the results for `Cc1nn(C2CC2)c2c1C(c1ccc(C(F)(F)F)cc1)N(c1cc(C)c(=O)n(C)c1)C2=O` (centres unmarked) [Example 97, 1-cyclopropyl-5-(1,5-dimethyl-6-oxo-1,6-dihydropyridin-3-yl)-3-methyl-4-(4-(trifluoromethyl)phenyl)-4,5-dihydropyrrolo[3,4-c]pyrazol-6(1H)-one] are 3.6 µM, 0.089 µM, 0.274 µM, 0.12 µM and over 10 µM.
On the same counts, the results for `Cc1cc(N2C(=O)c3nn(C(=O)N(C)C)c(C)c3[C@H]2c2ccc(Cl)cc2)cn2c(C)nnc12` [Example 150, (R)-4-(4-chlorophenyl)-5-(3,8-dimethyl-[1,2,4]triazolo[4,3-a]pyridin-6-yl)-N,N,3-trimethyl-6-oxo-5,6-dihydropyrrolo[3,4-c]pyrazole-2(4H)-carboxamide] are 4.6 µM, 0.11 µM, 0.211 µM, 0.0863 µM and over 10 µM.
In the case of `CCc1c2c(nn1CCO)C(=O)N(c1cc(C)c3onc(C)c3c1)C2c1ccc(Cl)cc1` (centres unmarked) [Example 80, 4-(4-chlorophenyl)-5-(3,7-dimethylbenzo[d]isoxazol-5-yl)-3-ethyl-2-(2-hydroxyethyl)-4,5-dihydropyrrolo[3,4-c]pyrazol-6(2H)-one], the IC50 in assay [1] is 5 µM; at His-Brd4(44-477), 0.035 µM. The results for the IC (total growth inhibition) in the assay on THP-1 cells, in the assay with MV-4-11 cells and with K-562 cells were 1.03 µM, 0.472 µM and over 10 µM, respectively.
For the compound `CCc1nn(C2CC2)c2c1[C@H](c1ccc(Cl)cc1)N(c1cc(C)c3nnc(C)n3c1)C2=O` [Example 106, (S)-4-(4-chlorophenyl)-1-cyclopropyl-5-(3,8-dimethyl-[1,2,4]triazolo[4,3-a]pyridin-6-yl)-3-ethyl-4,5-dihydropyrrolo[3,4-c]pyrazol-6(1H)-one], the IC50 in assay [1] was over 37 µM; on His-Brd4(44-477), 2.2 µM. For the same compound, the values for the IC (total growth inhibition) in the assay on THP-1 cells, with MV-4-11 cells and in the assay with K-562 cells were 4.68 µM, 1.48 µM and over 10 µM, respectively.
On the same counts, the results for `Cc1cc(N2C(=O)c3nn(C(=O)N(C)C)c(C)c3C2c2ccc(Cl)cc2)cn(C)c1=O` (centres unmarked) [Example 141, 4-(4-chlorophenyl)-5-(1,5-dimethyl-6-oxo-1,6-dihydropyridin-3-yl)-N,N,3-trimethyl-6-oxo-5,6-dihydropyrrolo[3,4-c]pyrazole-2(4H)-carboxamide] are 1.5 µM, 0.17 µM, 0.527 µM, 0.222 µM and over 10 µM.
On the same counts, the results for `Cc1nn(-c2ccnn2C)c2c1[C@H](c1ccc(Cl)cc1)N(c1cc(C)c3nnc(C)n3c1)C2=O` [Example 124, (S)-4-(4-chlorophenyl)-5-(3,8-dimethyl-[1,2,4]triazolo[4,3-a]pyridin-6-yl)-3-methyl-1-(1-methyl-1H-pyrazol-5-yl)-4,5-dihydropyrrolo[3,4-c]pyrazol-6(1H)-one] are over 37 µM, 25 µM, 1.54 µM, 0.73 µM and over 10 µM.
On the same counts, the results for `Cc1nn(C2CC2)c2c1[C@@H](c1ccc(Cl)cc1)N(c1cc(C)c3nnc(C)n3n1)C2=O` [Example 122, (R)-4-(4-chlorophenyl)-1-cyclopropyl-5-(3,8-dimethyl-[1,2,4]triazolo[4,3-b]-pyridazin-6-yl)-3-methyl-4,5-dihydropyrrolo[3,4-c]pyrazol-6(1H)-one] are over 37 µM, under 0.011 µM, 0.0107 µM, 0.00842 µM and over 10 µM.
On to `CC(=O)N1CC(n2nc(C)c3c2C(=O)N(c2cc(C)c(=O)n(C)c2)C3c2ccc(Cl)cc2)C1` (centres unmarked) [Example 153, 1-(1-acetylazetidin-3-yl)-4-(4-chlorophenyl)-5-(1,5-dimethyl-6-oxo-1,6-dihydropyridin-3-yl)-3-methyl-4,5-dihydropyrrolo[3,4-c]pyrazol-6(1H)-one], for which the IC50 in assay [1] worked out at 12 µM; on His-Brd4(44-477) it was 0.14 µM. The figures for the IC (total growth inhibition) in the assay with THP-1 cells, in the assay on MV-4-11 cells and in the assay on K-562 cells were 0.515 µM, 0.161 µM and over 10 µM, respectively.
`Cc1cc(N2C(=O)c3nn(C4CC4)c(C)c3C2c2ccc(Cl)cc2)cn2c(C)nnc12` (centres unmarked) [Example 93, 4-(4-chlorophenyl)-2-cyclopropyl-5-(3,8-dimethyl-[1,2,4]triazolo[4,3-a]pyridin-6-yl)-3-methyl-4,5-dihydropyrrolo[3,4-c]pyrazol-6(2H)-one]: the results for the IC50 (in assay [1]; on His-Brd4(44-477)) were 3.1 µM and 0.027 µM, respectively. Further, the results for the IC (total growth inhibition) with THP-1 cells, in the assay on MV-4-11 cells and with K-562 cells were 0.0518 µM, 0.0226 µM and over 10 µM, respectively.
For the compound `CCc1c2c(nn1C(=O)N(C)C)C(=O)N(c1cc(C)c(=O)n(C)c1)C2c1ccc(Cl)cc1` (centres unmarked) [Example 148, 4-(4-chlorophenyl)-5-(1,5-dimethyl-6-oxo-1,6-dihydropyridin-3-yl)-3-ethyl-N,N-dimethyl-6-oxo-5,6-dihydropyrrolo[3,4-c]pyrazole-2(4H)-carboxamide], the half-inhibitory concentration (IC50) is 4.1 µM in assay [1] and 0.27 µM at His-Brd4(44-477). Further, the values for the IC (total growth inhibition) in the assay with THP-1 cells, with MV-4-11 cells and in the assay on K-562 cells were 0.372 µM, 0.114 µM and over 10 µM, respectively.
On the same counts, the results for `Cc1cc(N2C(=O)c3c(c(CO)nn3C3CC3)C2c2ccc(Cl)cc2)cn2c(C)nnc12` (centres unmarked) [Example 131, 4-(4-chlorophenyl)-1-cyclopropyl-5-(3,8-dimethyl-[1,2,4]triazolo[4,3-a]pyridin-6-yl)-3-(hydroxymethyl)-4,5-dihydropyrrolo[3,4-c]pyrazol-6(1H)-one] are 30 µM, 0.036 µM, 0.119 µM, 0.0405 µM and over 10 µM.

The IC50 is the concentration that gives 50% inhibition.
